ChEMBL document CHEMBL1137138, “Synthesis and antiviral activity of P1' arylsulfonamide azacyclic urea HIV protease inhibitors” (Bioorg Med Chem Lett, 2004)

Experiments:
[1] = Antiviral activity against HIV virus in absence of human serum; type: functional
[2] = Antiviral activity against HIV virus in presence of 50% human serum; type: functional
[3] = Antiviral activity against HIV virus; type: functional
[4] = molecular target: Human immunodeficiency virus type 1 protease (Human immunodeficiency virus 1, UniProt Q72874); assay: Tested for inhibition of HIV protease

Compound | EC50 [1] [nM] | EC50 [2] [nM] | EC50 [3] [nM] | further results
O=C1N(Cc2ccc(O)cc2)[C@H](Cc2ccccc2)[C@H](O)CN(S(=O)(=O)c2cc(Cl)cc(Cl)c2)N1Cc1ccc(O)cc1 | – | – | 670 | –
O=C(c1ccccc1)N1C[C@@H](O)[C@@H](Cc2ccccc2)N(Cc2ccc(O)cc2)C(=O)N1Cc1ccc(O)cc1 | – | – | – | Ki [4]: 0.01 nM
Cc1ccccc1S(=O)(=O)N1C[C@@H](O)[C@@H](Cc2ccccc2)N(Cc2ccc(O)cc2)C(=O)N1Cc1ccc(O)cc1 | – | – | 230 | –
O=C1N(Cc2ccc(O)cc2)[C@H](Cc2ccccc2)[C@H](O)CN(S(=O)(=O)c2ccccc2)N1Cc1ccc(O)cc1 | – | – | 450 | Ki [4]: 1.37 nM
Cc1cccc(S(=O)(=O)N2C[C@@H](O)[C@@H](Cc3ccccc3)N(Cc3ccc(O)cc3)C(=O)N2Cc2ccc(O)cc2)c1 | – | – | 920 | –
O=C1N(Cc2ccc(O)cc2)[C@H](Cc2ccccc2)[C@H](O)CN(S(=O)(=O)c2ccc(Cl)c(Cl)c2)N1Cc1ccc(O)cc1 | – | – | 940 | –
COc1cccc(S(=O)(=O)N2C[C@@H](O)[C@@H](Cc3ccccc3)N(Cc3ccc(O)cc3)C(=O)N2Cc2ccc(O)cc2)c1 | – | – | 460 | –
O=C1N(Cc2ccc(O)cc2)[C@H](Cc2ccccc2)[C@H](O)CN(S(=O)(=O)c2ccc(Cl)cc2Cl)N1Cc1ccc(O)cc1 | – | – | 3200 | –
N#Cc1cccc(S(=O)(=O)N2C[C@@H](O)[C@@H](Cc3ccccc3)N(Cc3ccc(O)cc3)C(=O)N2Cc2ccc(O)cc2)c1 | – | – | 200 | –
CCCCN1C(=O)N(Cc2cccc(C(=N)NO)c2)[C@H](Cc2ccccc2)[C@H](O)CN1S(=O)(=O)c1cccc([N+](=O)[O-])c1 | 40 | 370 | – | –
CCCCN1C(=O)N(Cc2cccc(C(=N)NO)c2)[C@H](Cc2ccccc2)[C@H](O)CN1S(=O)(=O)c1cccc(C(C)=O)c1 | 150 | 1090 | – | –

Now from value to compound, other results behind:

EC50 [1] [nM] | EC50 [2] [nM] | EC50 [3] [nM] | Compound | further results
220 | 1860 | – | C=Cc1cccc(S(=O)(=O)N2C[C@@H](O)[C@@H](Cc3ccccc3)N(Cc3cccc(C(=N)NO)c3)C(=O)N2CCCC)c1 | –
– | 560 | – | CCCCN1C(=O)N(Cc2cccc(C(=N)NO)c2)[C@H](Cc2ccccc2)[C@H](O)CN1S(=O)(=O)c1cccc(OC)c1 | –
– | – | 750 | COc1ccc(S(=O)(=O)N2C[C@@H](O)[C@@H](Cc3ccccc3)N(Cc3ccc(O)cc3)C(=O)N2Cc2ccc(O)cc2)cc1 | –
150 | 2560 | – | CCCCN1C(=O)N(Cc2cccc(C(=N)NO)c2)[C@H](Cc2ccccc2)[C@H](O)CN1S(=O)(=O)c1cccc(O)c1 | –
– | – | 870 | Cc1ccc(S(=O)(=O)N2C[C@@H](O)[C@@H](Cc3ccccc3)N(Cc3ccc(O)cc3)C(=O)N2Cc2ccc(O)cc2)cc1 | –
– | – | 590 | O=C1N(Cc2ccc(O)cc2)[C@H](Cc2ccccc2)[C@H](O)CN(S(=O)(=O)c2cccc(F)c2)N1Cc1ccc(O)cc1 | –
20 | 400 | – | CCCCN1C(=O)N(Cc2cccc(C(=N)NO)c2)[C@H](Cc2ccccc2)[C@H](O)CN1S(=O)(=O)c1cccc(/C(C)=N\O)c1 | –
40 | 850 | – | CCCCN1C(=O)N(Cc2cccc(C(=N)NO)c2)[C@H](Cc2ccccc2)[C@H](O)CN1S(=O)(=O)c1cccc(C(C)O)c1 (stereo not given in full) | –
– | – | 1100 | O=C1N(Cc2ccc(O)cc2)[C@H](Cc2ccccc2)[C@H](O)CN(S(=O)(=O)c2ccc(C(F)(F)F)cc2)N1Cc1ccc(O)cc1 | –
– | – | 560 | O=C1N(Cc2ccc(O)cc2)[C@H](Cc2ccccc2)[C@H](O)CN(S(=O)(=O)c2cccc(Cl)c2Cl)N1Cc1ccc(O)cc1 | –
– | – | 420 | O=C1N(Cc2ccc(O)cc2)[C@H](Cc2ccccc2)[C@H](O)CN(S(=O)(=O)c2cccc(Br)c2)N1Cc1ccc(O)cc1 | –
– | – | 1100 | O=C1N(Cc2ccc(O)cc2)[C@H](Cc2ccccc2)[C@H](O)CN(S(=O)(=O)c2ccc(Cl)cc2)N1Cc1ccc(O)cc1 | –
30 | 2380 | – | CCCCN1C(=O)N(Cc2cccc(C(=N)NO)c2)[C@H](Cc2ccccc2)[C@H](O)CN1S(=O)(=O)c1cccc(N)c1 | –
160 | 2490 | – | CCCCN1C(=O)N(Cc2cccc(C(=N)NO)c2)[C@H](Cc2ccccc2)[C@H](O)CN1S(=O)(=O)c1cccc(Br)c1 | –
– | – | 810 | O=C1N(Cc2ccc(O)cc2)[C@H](Cc2ccccc2)[C@H](O)CN(S(=O)(=O)c2cccc([N+](=O)[O-])c2)N1Cc1ccc(O)cc1 | –
